From patent US20210045385A1, “PYRIDAZINONE-SUBSTITUTED KETOXIMES AS HERBICIDES” (FMC Corporation, priority 2018, published 2021)

Tests used:
kochia (Kochia scoparia) [1] = test: Test A preemergence, visual plant response rating; type: in vivo
Procedure, shortened: (§1)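 Formulated in a non-phytotoxic solvent mixture including surfactant, each test chemical was sprayed onto the soil surface after sowing, or onto seedlings 2 to 10 cm high. Roughly 10 days later, plants were compared with untreated controls and rated for injury from 0 (no effect) to 100 (complete control).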

[2] = system: barnyardgrass (Echinochloa crus-galli); test: Test A preemergence, visual plant response rating; type: in vivo
Procedure, shortened: as §1

[3] = system: foxtail, giant (giant foxtail, Setaria faberii); test: Test A preemergence, visual plant response rating; type: in vivo
Procedure, shortened: as §1

[4] = system: pigweed (Amaranthus retroflexus); test: Test A preemergence, visual plant response rating; type: in vivo
Procedure, shortened: as §1

[5] = system: Italian ryegrass (Lolium multiflorum); test: Test A preemergence, visual plant response rating; type: in vivo
Procedure, shortened: as §1

[6] = system: barnyardgrass (Echinochloa crus-galli); test: Test B flooded paddy test, visual plant response rating; type: in vivo; details: 250 g ai/ha, Flood, applied to paddy water, 2-leaf stage, evaluated after 13 to 15 days
Procedure, shortened: (§2)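 Greenhouse paddy conditions applied: two-leaf plants, a 3 cm flood above the soil surface maintained throughout, and compound added to the water rather than the foliage. Plants were judged visually against controls at 13 to 15 days.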

[7] = system: sedge, umbrella (small-flower umbrella sedge, Cyperus difformis); test: as above; type: in vivo; details: 250 g ai/ha, Flood, applied to paddy water, 2-leaf stage, evaluated after 13 to 15 days
Procedure, shortened: as §2

rice (Oryza sativa) = test: as above; type: in vivo; details: 250 g ai/ha, Flood, applied to paddy water, 2-leaf stage, evaluated after 13 to 15 days
Procedure, shortened: as §2

[8] = system: ducksalad (Heteranhera limosa); test: as above; type: in vivo; details: 250 g ai/ha, Flood, applied to paddy water, 2-leaf stage, evaluated after 13 to 15 days
Procedure, shortened: as §2

corn (Zea mays) = test: Test A postemergence, visual plant response rating; type: in vivo
Procedure, shortened: as §1

kochia (Kochia scoparia) [9] = test: Test A postemergence, visual plant response rating; type: in vivo
Procedure, shortened: as §1

[10] = system: ragweed (common ragweed, Ambrosia elatior); test: Test A postemergence, visual plant response rating; type: in vivo
Procedure, shortened: as §1

[11] = system: barnyardgrass (Echinochloa crus-galli); test: Test A postemergence, visual plant response rating; type: in vivo
Procedure, shortened: as §1

[12] = system: foxtail, giant (giant foxtail, Setaria faberii); test: Test A postemergence, visual plant response rating; type: in vivo
Procedure, shortened: as §1

[13] = system: blackgrass (Alopecurus myosuroides); test: Test A postemergence, visual plant response rating; type: in vivo
Procedure, shortened: as §1

[14] = system: pigweed (Amaranthus retroflexus); test: Test A postemergence, visual plant response rating; type: in vivo
Procedure, shortened: as §1

[15] = system: wheat (Triticum aestivum); test: Test A postemergence, visual plant response rating; type: in vivo
Procedure, shortened: as §1

[16] = system: galium (catchweed bedstraw, Galium aparine); test: Test A postemergence, visual plant response rating; type: in vivo
Procedure, shortened: as §1

[17] = system: Italian ryegrass (Lolium multiflorum); test: Test A postemergence, visual plant response rating; type: in vivo
Procedure, shortened: as §1

[18] = 125 g ai/ha, preemergence, 0 to 100 scale, 0 no effect, 100 complete control
[19] = 500 g ai/ha Preemergence, approx. 10 days
[20] = 500 g ai/ha, postemergence, 0 is no effect, 100 is complete control
[21] = Postemergence, 125 g ai/ha, 0 to 100 scale (0 no effect, 100 complete control)

CO/N=C(/c1c(O)c(C)nn(C)c1=O)c1cc(Br)cc2ccccc12 [Compound 99, 4-[(E)-(3-bromo-1-naphthalenyl)(methoxyimino)methyl]-5-hydroxy-2,6-dimethyl-3(2H)-pyridazinone]
Kochia plant response rating (kochia (Kochia scoparia) [1]; [18]): 70 | Kochia plant response rating (0 to 100 scale) (kochia (Kochia scoparia) [1]; [19]): 90 | Barnyardgrass plant response rating [2, 18]: 90 | Barnyardgrass plant response rating (0 to 100 scale) [2, 19]: 100 | Foxtail, Giant plant response rating [3, 18]: 100 | Foxtail, Giant plant response rating (0 to 100 scale) [3, 19]: 100 | Pigweed plant response rating [4, 18]: 90 | Pigweed plant response rating (0 to 100 scale) [4, 19]: 100 | Ryegrass, Italian plant response rating [5, 18]: 90 | Ryegrass, Italian plant response rating (0 to 100 scale) [5, 19]: 100 | melting point: 194 to 198 °C | Plant response rating, Barnyardgrass (0 to 100 scale, 0 is no effect, 100 is complete control) [6]: 25 | Plant response rating, Sedge, Umbrella (0 to 100 scale, 0 is no effect, 100 is complete control) [7]: 70 | Plant response rating, Rice (0 to 100 scale, 0 is no effect, 100 is complete control) (rice (Oryza sativa)): 15 | Plant response rating, Ducksalad (0 to 100 scale, 0 is no effect, 100 is complete control) [8]: 70 | Corn plant response rating (0 to 100 scale) (corn (Zea mays); [20]): 60 | Corn plant response rating (corn (Zea mays); [21]): 30 | Kochia plant response rating (0 to 100 scale) (kochia (Kochia scoparia) [9]; [20]): 70 | Kochia plant response rating (kochia (Kochia scoparia) [9]; [21]): 50 | Ragweed plant response rating (0 to 100 scale) [10, 20]: 90 | Ragweed plant response rating [10, 21]: 90 | Barnyardgrass plant response rating (0 to 100 scale) [11, 20]: 90 | Barnyardgrass plant response rating [11, 21]: 80 | Foxtail, Giant plant response rating (0 to 100 scale) [12, 20]: 80 | Foxtail, Giant plant response rating [12, 21]: 80 | Blackgrass plant response rating (0 to 100 scale) [13, 20]: 100 | Blackgrass plant response rating [13, 21]: 90 | Pigweed plant response rating (0 to 100 scale) [14, 20]: 100 | Pigweed plant response rating [14, 21]: 60 | Wheat plant response rating (0 to 100 scale) [15, 20]: 80 | Wheat plant response rating [15, 21]: 50 | Galium plant response rating (0 to 100 scale) [16, 20]: 100 | Galium plant response rating [16, 21]: 90 | Ryegrass, Italian plant response rating (0 to 100 scale) [17, 20]: 90 | Ryegrass, Italian plant response rating [17, 21]: 90
